Test results from US20190202719A1, “METHOD FOR CONTROLLING MOLLUSK POPULATIONS” (priority 2016, published 2019).
Where two headings read alike, the source gives them in different places.

Key:
[1] = test system: veligers of quagga mussels; test: Efficiency in killing mollusk veligers, beaker exposure; conditions: approximately 20° C.
Protocol: Further testing was conducted specifically on veligers of quagga mussels collected from Lake Mead and utilizing citric acid and L-lactic acid. Trials were conducted using 2 replicate beakers per test interval at approximately 20° C. Test beakers (100 mL) were seeded with at least 200 veligers per replicate in 10 mL of veliger concentrate and filtered lake water and then dosed with 90 mL of prepared acid concentrate for each of the tested concentrations of lactic acid or citric acid. Stock acid solutions were measured by weight and added to filtered lake water to make the total volume needed. Controls were run concurrently with treatments and used filtered lake water instead of acid to add into the beaker. Exposure times included 1, 5, and 15 minutes, and 1 and 24 hours to assess mortality for the different concentrations of acids.
The exposure times were 5 minutes, 15 minutes, one hour, and 24 hours.
In the second test, the final concentrations of citric acid and L-lactic acid were 1% and 2% by weight for each acid. The exposure times were one minute and 5 minutes.

[2] = test system: adult dreissenid mussels; test: Effective pH range determination, adult mussel mortality in pH-adjusted raw lake water
Protocol: To find an optimal pH range at which lactic acid effectively killed adult dreissenid mussels, raw lake water was placed in 4 L water containers and aerated. The pH was adjusted in three containers to about 2.8, 4, and 6, respectively, using lactic acid. The initial water parameters (temperature 20° C., pH 7.6, dissolved oxygen (DO) 7.73, Alkalinity 90 mg/l) were monitored. A fourth container, with no pH adjustment was used for control. Twenty adult mussels of various sizes were placed in each of the three containers. […] Mortality was defined as a gaping shell with the adult mussel not responding to gentle prodding of the flesh.
The experiment was repeated with the pH adjusted to about 5.

[3] = test system: adult dreissenid mussels; conditions: pH about 4, warm water, after 72 hours

| Structure (SMILES) | veliger mortality ([1]; 0.6% by weight, one hour exposure) [%] | veliger mortality ([1]; 2% by weight, five minute exposure) [%] | mortality ([2]; in vivo, pH 4) [%] | shell condition ([2]; pH 2.8, after 48 hours) | mortality ([2]; pH of 6, after 48 hours) | mortality [3] |
| --- | --- | --- | --- | --- | --- | --- |
| C[C@H](O)C(=O)O [L-lactic acid] | 99 | 86 | – | – | – | – |
| CC(O)C(=O)O (stereo not drawn) [lactic acid] | – | – | 100 | shells were disintegrating | no mortality | complete mortality |
